Drawing on patent publication US4113957A, “1-Substituted pyrazoles” (Bayer Aktiengesellschaft, priority 1975, dated 1978), this text covers inhibition for one molecule.

This experiment relates to venous thrombs (left jugular vein). The experiment in a line: Antithrombotic action: thromb formation in supercooled jugular vein of rats. The format is in vivo. The following applies: Rattus norvegicus, po, 10 mg/kg orally, reduction of thromb size vs control, after 4 hours. How it is done: The left jugular vein of rats weighing 170 to 180 g was exposed under ether narcosis and supercooled to -12° C. for 2 minutes to stimulate thromb formation. The thromb was isolated from the vein 4 hours later, and was weighed. The test animals were given the test preparation in tragacanth mucilage immediately before supercooling the wall of the blood vessel. As a result, the protective antithrombotic activity was tested in the first 4 hours after stimulating thromb formation.

As to `Cc1cc(OC(=O)c2ccco2)n(CCOc2ccc3ccccc3c2)n1` [Example 20, 5-(Furyl-(2)-carbonyloxy)-3-methyl-1-(2-(β-naphthyloxy)-ethyl)-pyrazole], the inhibition at 10 mg/kg was found to be 61%.

Broadly, the inhibition is the share of the control response that was lost under treatment. Read a low inhibition as little suppression.
